Laboratory results reported in PMC5681660, “Reduced hepatitis B and D viral entry using clinically applied drugs as novel inhibitors of the bile acid transporter NTCP” (Scientific Reports, 2017).
Where a name gives a salt, the structure may show the parent alone.

Molecular target: T1, human NTCP (Homo sapiens, UniProt Q14973)
T1 sequence (Q14973 1-349): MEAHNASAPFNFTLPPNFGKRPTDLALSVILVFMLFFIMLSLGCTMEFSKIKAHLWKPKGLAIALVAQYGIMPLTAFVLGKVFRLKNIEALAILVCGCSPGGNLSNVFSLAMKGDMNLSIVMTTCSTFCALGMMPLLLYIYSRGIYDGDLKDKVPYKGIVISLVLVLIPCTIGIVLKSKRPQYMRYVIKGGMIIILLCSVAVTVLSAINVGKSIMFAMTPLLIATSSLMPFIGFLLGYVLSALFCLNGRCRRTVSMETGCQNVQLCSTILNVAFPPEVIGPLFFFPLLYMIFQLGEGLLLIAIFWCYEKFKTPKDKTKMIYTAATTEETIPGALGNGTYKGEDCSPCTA
Test: Screening taurocholate uptake assay (96-well, [14C]taurocholate, 10 µM drug)
Settings: for B-score functional assay: screening taurocholate uptake, 10 µM drug

[1] = combined ranking of functional and binding screening assays
[2] = ranking over the functional and the binding screening assay

Compound | Ranking score [1] | B-score functional assay | Ranking score [2] | B-score functional assay (B-score)
CC(C)NCC(O)c1cc(O)cc(O)c1.CC(C)NCC(O)c1cc(O)cc(O)c1.O=S(=O)(O)O (stereo not shown) | 489.878 | 0.057 |  | 
Cl.Cl.c1ccc2c(c1)CCCc1cc(NCCN3CCOCC3)nnc1-2 |  | -1.983 | 77.0714 | 
CC=CC(=O)N(CC)c1ccccc1C (mixture of isomers) [Crotamiton] |  | -0.004 | 248.379 | 
C#C[C@]1(OC(C)=O)CC[C@H]2[C@@H]3CCC4=CC(=NO)CC[C@@H]4[C@H]3CC[C@@]21CC (mixture of isomers) [Norgestimate] |  | -2.463 | 95.4987 | 
CNCC(O)c1ccc(O)cc1 (racemic) [(+,-)-Synephrine] | 485.351 | -0.397 |  | 
CN(Cc1cnc2nc(N)nc(N)c2n1)c1ccc(C(=O)N[C@@H](CCC(=O)O)C(=O)O)cc1 (racemic) [Amethopterin (R,S)] | 579.365 | -0.795 |  | 
Nc1c2c(nc3ccccc13)CCCC2O.O=C(O)/C=C\C(=O)O (racemic) [Hydroxytacrine maleate (R,S)] |  | 2.059 | 180.3 | 
CC(=O)NC1CCSC1=O (racemic) [N-Acetyl-DL-homocysteine Thiolactone] | 563.625 | 0.096 |  | 
O=C1c2cccc(O)c2C(=O)c2c(O)cccc21 [1,8-Dihydroxyanthraquinone] | 1173.42 |  |  | 1.277
Nc1ccccc1S(N)(=O)=O [2-Aminobenzenesulfonamide] | 626.378 | -0.592 |  | 
CC(C)(C)NC[C@@H](O)COc1cccc2c1CCCC2=O.Cl [(+) -Levobunolol hydrochloride] | 464.377 | -1.002 |  | 
CC(C)NC[C@H](O)COc1cccc2ccccc12 [(S)-propranolol hydrochloride] | 599.166 | -0.168 |  | 
Nc1nc(NC2CC2)c2ncn([C@H]3C=C[C@@H](CO)C3)c2n1 [Abacavir Sulfate] | 1184.97 |  |  | 2.371
CC(=O)NCCCS(=O)(=O)O [Acamprosate calcium] |  | -0.535 | 126.206 | 
CC(=O)OC1CN2CCC1CC2 (stereo not shown) [Aceclidine Hydrochloride] |  | -1.773 | 189.214 | 
CC(=O)N[C@@H](CS)C(=O)O [Acetylcysteine] | 542.19 | -1.045 |  | 
CC(=O)Oc1ccccc1C(=O)O [Acetylsalicylic acid] | 1161.38 |  |  | 2.017
COc1ccc(-c2ccc3cc(C(=O)O)ccc3c2)cc1C12CC3CC(CC(C3)C1)C2 [Adapalene] | 620.435 | 0.202 |  | 
CCC(=O)OCC(=O)[C@@]1(OC(=O)CC)[C@H](C)C[C@H]2[C@H]3[C@H]([C@@H](O)C[C@@]21C)[C@@]1(C)C=CC(=O)C=C1C[C@H]3Cl [Alclometasone dipropionate] |  | -2.188 | 175.417 | 
CCCCC(CC)CNC(=N)NC(=N)NCCCCCCNC(=N)NC(=N)NCC(CC)CCCC (stereo not shown) [Alexidine dihydrochloride] |  | -9.197 | 6.481 | 
C=C1/C(=C\C=C2/CCC[C@]3(C)[C@@H]([C@H](C)CCCC(C)C)CC[C@@H]23)C[C@@H](O)C[C@@H]1O [Alfacalcidol] | 594.47 | -0.117 |  | 
COc1cc2nc(N(C)CCCNC(=O)C3CCCO3)nc(N)c2cc1OC (stereo not shown) [Alfuzosin hydrochloride] |  | -2.737 | 237.095 | 
CC(=O)[C@@]12O[C@](C)(c3ccccc3)O[C@@H]1C[C@H]1[C@@H]3CCC4=CC(=O)CC[C@]4(C)[C@H]3CC[C@@]12C [Algestone acetophenide] |  | -2.799 | 142.566 | 
C=CCN1CCCC1CNC(=O)c1cc2[nH]nnc2cc1OC.Cl (stereo not shown) [Alizapride HCl] | 642.464 | 2.201 |  | 
NC(=O)NC1NC(=O)NC1=O (stereo not shown) [Allantoin] |  | -2.549 | 134.967 | 
Cc1[nH]cnc1CN1CCc2c(c3ccccc3n2C)C1=O [Alosetron hydrochloride] | 562.783 | -0.019 |  | 
C=CCc1ccccc1OCC(O)CNC(C)C (stereo not shown) [Alprenolol hydrochloride] | 1166.46 |  |  | 2.549

Compound | Ranking score [1] | B-score functional assay | Ranking score [2] | B-score functional assay (B-score)
C=CC[C@]1(O)CC[C@H]2[C@@H]3CCC4=CC(=O)CCC4=C3C=C[C@@]21C [Altrenogest] | 607.028 | 0.332 |  | 
CN(C)c1nc(N(C)C)nc(N(C)C)n1 [Altretamine] | 605.153 | -0.464 |  | 
COC(c1ccccc1)(c1ccccc1)[C@H](Oc1nc(C)cc(C)n1)C(=O)O [Ambrisentan] | 629.311 | -0.389 |  | 
CC(=O)OCC(=O)[C@@]12OC3(CCCC3)O[C@@H]1C[C@H]1[C@@H]3CCC4=CC(=O)C=C[C@]4(C)[C@@]3(F)[C@@H](O)C[C@@]12C [Amcinonide] | 530.494 | 0.343 |  | 
Nc1c2ccccc2nc2ccccc12 [Aminacrine] | 608.609 | -0.079 |  | 
Cn1c(=O)c2[nH]cnc2n(C)c1=O [Aminophylline] | 601.379 | -0.16 |  | 
CCC(C)(C)c1ccc(CC(C)CN2C[C@@H](C)O[C@@H](C)C2)cc1 (stereo partly shown) [Amorolfine hydrochloride] | 533.183 | -0.84 |  | 
Clc1ccc2c(c1)C(N1CCNCC1)=Nc1ccccc1O2 [Amoxapine] | 604.055 | 0.589 |  | 
CC1(C)S[C@@H]2[C@H](NC(=O)[C@H](N)c3ccc(O)cc3)C(=O)N2[C@H]1C(=O)O [Amoxicillin] |  | -0.114 | 277.274 | 
C[C@@H]1[C@H](O)[C@@H](C)/C=C/C=C/C=C/C=C/C=C/C=C/C=C/[C@H](O[C@@H]2O[C@H](C)[C@@H](O)[C@H](N)[C@@H]2O)C[C@@H]2O[C@](O)(C[C@@H](O)C[C@@H](O)[C@H](O)CC[C@@H](O)C[C@@H](O)CC(=O)O[C@H]1C)C[C@H](O)[C@H]2C(=O)O [Amphotericin B] |  | -7.097 | 61.0819 | 
CC1(C)S[C@@H]2[C@H](NC(=O)[C@H](N)c3ccccc3)C(=O)N2[C@H]1C(=O)O [Ampicillin trihydrate] |  | -0.594 | 199.178 | 
CCOC(=O)OC(C)OC1=C(C(=O)Nc2ccccn2)N(C)S(=O)(=O)c2ccccc21 (stereo not shown) [Ampiroxicam] | 519.584 | 0.098 |  | 
CCCc1ncc(C[n+]2ccccc2C)c(N)n1 [Amprolium hydrochloride] |  | -0.209 | 254.142 | 
CC(C)(C#N)c1cc(Cn2cncn2)cc(C(C)(C)C#N)c1 [Anastrozole] | 558.153 | 0.728 |  | 
O=C1c2c(O)cccc2Cc2cccc(O)c21 [Anthralin] |  | 0.019 | 68.2788 | 
CCCCCC[C@H]1C(=O)O[C@H](C)[C@H](NC(=O)c2cccc(NC=O)c2O)C(=O)O[C@@H](C)[C@@H]1OC(=O)CC(C)C [Antimycin A] |  | -8.175 | 15.6525 | 
Cc1c(O)c(=O)n(-c2ccccc2)n1C [Antipyrine, 4-hydroxy] |  | -1.78 | 262.114 | 
Cc1cc(=O)n(-c2ccccc2)n1C [Antipyrine] |  | -1.958 | 172.864 | 
C[C@@H](O[C@H]1OCCN(Cc2n[nH]c(=O)[nH]2)[C@H]1c1ccc(F)cc1)c1cc(C(F)(F)F)cc(C(F)(F)F)c1 [Aprepitant] |  | -3.7 | 111.812 | 
O=C1CCc2ccc(OCCCCN3CCN(c4cccc(Cl)c4Cl)CC3)cc2N1 [Aripiprazole] | 580.393 | 1.007 |  | 
CN1CC2c3ccccc3Oc3ccc(Cl)cc3C2C1 (stereo not shown) [Asenapine maleate] |  | -0.488 | 127.491 | 
COc1ccc(CCN2CCC(Nc3nc4ccccc4n3Cc3ccc(F)cc3)CC2)cc1 [Astemizole] |  | -0.026 | 231.853 | 
CC(C)c1c(C(=O)Nc2ccccc2)c(-c2ccccc2)c(-c2ccc(F)cc2)n1CC[C@@H](O)C[C@@H](O)CC(=O)O [Atorvastatin] |  | -2.669 | 231.469 | 
CC[C@H](C)[C@H]1O[C@]2(C=C[C@@H]1C)C[C@@H]1C[C@@H](C/C=C(\C)[C@@H](O[C@H]3C[C@H](OC)[C@@H](O[C@H]4C[C@H](OC)[C@@H](O)[C@H](C)O4)[C@H](C)O3)[C@@H](C)/C=C/C=C3\CO[C@@H]4[C@H](O)C(C)=C[C@@H](C(=O)O1)[C@]34O)O2 [Avermectin B1a] |  | -1.314 | 51.7494 | 
COc1ccc(C(=O)CC(=O)c2ccc(C(C)(C)C)cc2)cc1 [Avobenzone] |  | -0.955 | 206.26 | 
OC(c1ccccc1)(c1ccccc1)C1CCNCC1 [Azacyclonol] | 525.026 | -0.041 |  | 
